# Test results: patent US20070111318A1 (priority 2003, published 2007)
# Tested on: ddY mice
# Conditions: mouse, in vivo, ip
compound,measurement,value
"C=C(C[C@@H]1C[C@H](O)[C@]2(C)O[C@@H]3C[C@@H]4O[C@@H]5C[C@]6(C)O[C@]7(C)CC[C@@H]8O[C@@H]9C[C@]%10(C)O[C@@H]%11C(C)=CC(=O)O[C@H]%11C[C@H]%10O[C@H]9C[C@@H](C)[C@H]8O[C@H]7C[C@H]6O[C@@]5(C)C/C=C\[C@H]4O[C@H]3C[C@H]2O1)C(=O)O [BTX-B5, brevetoxin B5]",symptoms after injection,symptoms of neurotoxicity extremely similar to those caused by other brevetoxins
